{"source": "ChEMBL document CHEMBL2010779", "about": "“Dibenzocyclooctadiene lignans from Kadsura polysperma and their antineurodegenerative activities” (2012)", "format_in_all_cases": "functional", "conditions_in_all_cases": "read-out: Activity", "key": {"PC-12 [1]": {"system": "PC-12", "experiment": "Neuroprotective activity against amyloid beta(25-35)-induced cell death in rat PC12 cells assessed as cell viability at 1 uM incubated for 2 hrs prior to amyloid beta(25-35)-challenge measured after 24 hrs by MTT assay (reference value: 38.8 +/- 1%)"}, "PC-12 [2]": {"system": "PC-12", "experiment": "Neuroprotective activity against amyloid beta(25-35)-induced cell death in rat PC12 cells assessed as cell viability at 10 uM incubated for 2 hrs prior to amyloid beta(25-35)-challenge measured after 24 hrs by MTT assay (reference value: 38.8 +/- 1%)"}, "PC-12 [3]": {"system": "PC-12", "experiment": "Neuroprotective activity against H2O2-induced cell death in rat PC12 cells assessed as cell viability at 1 uM incubated for 2 hrs prior to H2O2-challenge measured after 24 hrs by MTT assay (reference value: 53.7 +/- 1.7%)"}, "PC-12 [4]": {"system": "PC-12", "experiment": "Neuroprotective activity against H2O2-induced cell death in rat PC12 cells assessed as cell viability at 10 uM incubated for 2 hrs prior to H2O2-challenge measured after 24 hrs by MTT assay (reference value: 53.7 +/- 1.7%)"}, "PC-12 [5]": {"system": "PC-12", "experiment": "Neuroprotective activity against H2O2-induced cell death in rat PC12 cells assessed as cell viability at 1 uM incubated for 2 hrs prior to H2O2-challenge measured after 24 hrs by MTT assay (reference value: 53.1 +/- 1.1%)"}, "PC-12 [6]": {"system": "PC-12", "experiment": "Neuroprotective activity against amyloid beta(25-35)-induced cell death in rat PC12 cells assessed as cell viability at 10 uM incubated for 2 hrs prior to amyloid beta(25-35)-challenge measured after 24 hrs by MTT assay (reference value: 34.8 +/- 0.8%)"}, "PC-12 [7]": {"system": "PC-12", "experiment": "Neuroprotective activity against amyloid beta(25-35)-induced cell death in rat PC12 cells assessed as cell viability at 1 uM incubated for 2 hrs prior to amyloid beta(25-35)-challenge measured after 24 hrs by MTT assay (reference value: 34.8 +/- 0.8%)"}, "PC-12 [8]": {"system": "PC-12", "experiment": "Neuroprotective activity against H2O2-induced cell death in rat PC12 cells assessed as cell viability at 10 uM incubated for 2 hrs prior to H2O2-challenge measured after 24 hrs by MTT assay (reference value: 53.1 +/- 1.1%)"}}}
{"smiles": "C/C=C(\\C)C(=O)O[C@H]1c2cc(OC)c(OC)c(OC)c2-c2c(cc3c(c2OC)OCO3)[C@H](OC(=O)CC)[C@H](C)[C@H]1C", "values": [{"measurement": "viability at 1 µM", "setting": "PC-12 [1]", "value": 43.1, "unit": "%"}, {"measurement": "viability at 10 µM", "setting": "PC-12 [2]", "value": 39.3, "unit": "%"}, {"measurement": "viability at 1 µM", "setting": "PC-12 [3]", "value": 54.6, "unit": "%"}, {"measurement": "viability at 10 µM", "setting": "PC-12 [4]", "value": 60.7, "unit": "%"}]}
{"smiles": "COc1cc2c(c(OC)c1OC)-c1c(cc3c(c1OC)OCO3)[C@H](O)[C@H](C)[C@H](C)C2", "note": "[ISOGOMISIN O]", "values": [{"measurement": "viability at 1 µM", "setting": "PC-12 [1]", "value": 38, "unit": "%"}, {"measurement": "viability at 10 µM", "setting": "PC-12 [2]", "value": 33.3, "unit": "%"}, {"measurement": "viability at 1 µM", "setting": "PC-12 [3]", "value": 48.8, "unit": "%"}, {"measurement": "viability at 10 µM", "setting": "PC-12 [4]", "value": 55.8, "unit": "%"}]}
{"smiles": "COc1cc2c(c(OC)c1OC)-c1c(cc3c(c1OC)OCO3)[C@H](OC(=O)/C=C/c1ccccc1)[C@H](C)[C@H](C)C2", "note": "[KADSUPHILINS A]", "values": [{"measurement": "viability at 1 µM", "setting": "PC-12 [5]", "value": 53, "unit": "%"}, {"measurement": "viability at 10 µM", "setting": "PC-12 [6]", "value": 32.3, "unit": "%"}, {"measurement": "viability at 1 µM", "setting": "PC-12 [7]", "value": 35.3, "unit": "%"}, {"measurement": "viability at 10 µM", "setting": "PC-12 [8]", "value": 52.5, "unit": "%"}]}
{"smiles": "COc1cc2c(c(OC)c1OC)-c1c(cc3c(c1OC)OCO3)[C@H](OC(C)=O)[C@H](C)[C@H](C)C2", "note": "[KADSURIN]", "values": [{"measurement": "viability at 1 µM", "setting": "PC-12 [5]", "value": 57.2, "unit": "%"}, {"measurement": "viability at 10 µM", "setting": "PC-12 [6]", "value": 32.9, "unit": "%"}, {"measurement": "viability at 1 µM", "setting": "PC-12 [7]", "value": 35.1, "unit": "%"}, {"measurement": "viability at 10 µM", "setting": "PC-12 [8]", "value": 44, "unit": "%"}]}
{"smiles": "C/C=C(\\C)C(=O)Oc1c(OC)c(OC)cc2c1-c1c(cc(OC)c(OC)c1OC)[C@H](O)[C@H](C)[C@H](C)C2", "note": "[METHYL SCHISANTHERIN F]", "values": [{"measurement": "viability at 1 µM", "setting": "PC-12 [1]", "value": 41.4, "unit": "%"}, {"measurement": "viability at 10 µM", "setting": "PC-12 [2]", "value": 41, "unit": "%"}, {"measurement": "viability at 1 µM", "setting": "PC-12 [3]", "value": 50.4, "unit": "%"}, {"measurement": "viability at 10 µM", "setting": "PC-12 [4]", "value": 53.4, "unit": "%"}]}
{"smiles": "C/C=C(/C)C(=O)O[C@H]1c2cc3c(c(OC)c2-c2c(cc(OC)c(OC)c2OC)[C@H](OC(=O)/C(C)=C\\C)[C@@H](C)[C@H]1C)OCO3", "note": "[POLYSPERLIGNAN A]", "values": [{"measurement": "viability at 1 µM", "setting": "PC-12 [1]", "value": 39.9, "unit": "%"}, {"measurement": "viability at 10 µM", "setting": "PC-12 [2]", "value": 46.4, "unit": "%"}, {"measurement": "viability at 1 µM", "setting": "PC-12 [3]", "value": 55.8, "unit": "%"}, {"measurement": "viability at 10 µM", "setting": "PC-12 [4]", "value": 58.2, "unit": "%"}]}
{"smiles": "C/C=C(\\C)C(=O)O[C@H]1c2cc3c(c(OC)c2-c2c(cc(OC)c(OC)c2OC)[C@H](OC(C)=O)[C@@H](C)[C@H]1C)OCO3", "note": "[POLYSPERLIGNAN B]", "values": [{"measurement": "viability at 1 µM", "setting": "PC-12 [5]", "value": 55.9, "unit": "%"}, {"measurement": "viability at 10 µM", "setting": "PC-12 [6]", "value": 34.1, "unit": "%"}, {"measurement": "viability at 1 µM", "setting": "PC-12 [7]", "value": 36.4, "unit": "%"}, {"measurement": "viability at 10 µM", "setting": "PC-12 [8]", "value": 58.9, "unit": "%"}]}
{"smiles": "C/C=C(/C)C(=O)O[C@H]1c2cc3c(c(OC)c2-c2c(cc(OC)c(OC)c2OC)[C@H](OC(=O)/C=C/c2ccccc2)[C@@H](C)[C@H]1C)OCO3", "note": "[POLYSPERLIGNAN E]", "values": [{"measurement": "viability at 1 µM", "setting": "PC-12 [1]", "value": 39, "unit": "%"}, {"measurement": "viability at 10 µM", "setting": "PC-12 [2]", "value": 39.7, "unit": "%"}, {"measurement": "viability at 1 µM", "setting": "PC-12 [3]", "value": 57.1, "unit": "%"}, {"measurement": "viability at 10 µM", "setting": "PC-12 [4]", "value": 58.9, "unit": "%"}]}
{"smiles": "COc1cc2c(c(OC)c1OC)-c1c(cc3c(c1OC)OCO3)[C@H](OC(=O)/C=C\\c1ccccc1)[C@H](C)[C@H](C)C2", "note": "[POLYSPERLIGNAN F]", "values": [{"measurement": "viability at 1 µM", "setting": "PC-12 [1]", "value": 38.4, "unit": "%"}, {"measurement": "viability at 10 µM", "setting": "PC-12 [2]", "value": 36.4, "unit": "%"}, {"measurement": "viability at 1 µM", "setting": "PC-12 [3]", "value": 55.2, "unit": "%"}, {"measurement": "viability at 10 µM", "setting": "PC-12 [4]", "value": 58.5, "unit": "%"}]}
{"smiles": "C/C=C(/C)C(=O)Oc1c(OC)c(OC)cc2c1-c1c(cc(OC)c(OC)c1OC)[C@H](O)[C@H](C)[C@H](C)[C@H]2OC(=O)/C(C)=C\\C", "note": "[POLYSPERLIGNAN I]", "values": [{"measurement": "viability at 1 µM", "setting": "PC-12 [1]", "value": 39, "unit": "%"}, {"measurement": "viability at 10 µM", "setting": "PC-12 [2]", "value": 41.2, "unit": "%"}, {"measurement": "viability at 1 µM", "setting": "PC-12 [3]", "value": 53.3, "unit": "%"}, {"measurement": "viability at 10 µM", "setting": "PC-12 [4]", "value": 53.7, "unit": "%"}]}
{"smiles": "COc1cc2c(c(OC)c1OC)-c1c(cc3c(c1OC)OCO3)[C@H](O)[C@@H](C)[C@@H](C)C2", "note": "[YUNNANKADSURIN B]", "values": [{"measurement": "viability at 1 µM", "setting": "PC-12 [5]", "value": 51, "unit": "%"}, {"measurement": "viability at 10 µM", "setting": "PC-12 [6]", "value": 33.2, "unit": "%"}, {"measurement": "viability at 1 µM", "setting": "PC-12 [7]", "value": 35.2, "unit": "%"}, {"measurement": "viability at 10 µM", "setting": "PC-12 [8]", "value": 53.3, "unit": "%"}]}
